In patent publication US9656962B2, “Ring-contracted morphinans and the use thereof” (Purdue Pharma L.P., priority 2013, dated 2017):

Experiments:
[1] = biological target: human opioid receptor-like receptor (ORL-1) (Homo sapiens (Human), UniProt P41146); assay: ORL-1 receptor radioligand binding assay ([3H]-nociceptin); conditions: binding affinity, bound given in μM, read-out: Ki ORL-1
Procedure: ORL-1 Receptor Binding Assay Procedure: Membranes from recombinant HEK-293 cells expressing the human opioid receptor-like receptor (ORL-1) (Perkin Elmer, Shelton, Conn.) was prepared by lysing cells in ice-cold hypotonic buffer (2.5 mM MgCl2, 50 mM HEPES, pH 7.4) (10 ml/10 cm dish) followed by homogenization with a tissue grinder/Teflon pestle. Membranes were collected by centrifugation at 30,000×g for 15 min at 4° C. and pellets resuspended in hypotonic buffer to a final concentration of 1-3 mg/ml. Protein concentrations were determined using the BioRad protein assay reagent with bovine serum albumen as standard. Aliquots of the ORL-1 receptor membranes were stored at −80° C.
Radioligand binding assays (screening and dose-displacement) use 0.1 nM [^3H]-nociceptin (Perkin Elmer, Shelton, Conn.; 87.7 Ci/mmole) with 12 μg membrane protein in a final volume of 500 μl binding buffer (10 mM MgCl2, 1 mM EDTA, 5% DMSO, 50 mM HEPES, pH 7.4). Non-specific binding was determined in the presence of […] unlabeled nociceptin (American Peptide Company). […] Fifty μl/well scintillation cocktail (Perkin Elmer, Shelton, Conn.) was added and plates are counted in a Packard Top-Count for 1 min/well. The data from screening and dose-displacement experiments were analyzed using Microsoft Excel and the curve fitting functions in GraphPad PRISM™, v. […]

[2] = biological target: μ-opioid receptor (Homo sapiens (Human), UniProt P35372); assay: μ-opioid receptor [35S]GTPγS functional assay, HEK-293 or CHO cells (Table 4); type: biochemical
How it was run: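 Membranes from HEK-293, CHO or U-2 OS cells (or commercial) expressing recombinant μ receptor; 0.20 nM [35S]GTPγS, 3 mM GDP, saponin, in 100 mM NaCl/10 mM MgCl2/20 mM HEPES pH 7.4.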

[3] = biological target: δ-opioid receptor (Homo sapiens (Human), UniProt P41143); assay: δ-opioid receptor [35S]GTPγS functional assay (Table 4); type: biochemical
Procedure: δ-Opioid Receptor Functional Assay Procedures: Functional [^35S]GTPγS binding assays were conducted as follows. δ opioid receptor membrane solution was prepared by sequentially adding final concentrations of 0.026 μg/μl δ membrane protein (Perkin Elmer, Shelton, Conn.), 10 μg/mL saponin, 3 μM GDP and 0.20 nM [^35S]GTPγS to binding buffer (100 mM NaCl, 10 mM MgCl2, 20 mM HEPES, pH 7.4) on ice. The prepared membrane solution (190 μl/well) was transferred to 96-shallow well polypropylene plates containing 10 μl of 20× concentrated stock solutions of agonist prepared in DMSO. Plates were incubated for 30 min at a temperature of about 25° C. with shaking Reactions were terminated by rapid filtration onto 96-well Unifilter GF/B filter plates (Perkin Elmer, Shelton, Conn.) using a 96-well tissue harvester (Packard) and followed by three filtration washes with 200 μl ice-cold binding buffer (10 mM NaH2PO4, 10 mM Na2HPO4, pH 7.4). Filter plates were subsequently dried at 50° C. for 1-2 hours. Fifty μl/well scintillation cocktail (Perkin Elmer, Shelton, Conn.) was added and plates were counted in a Packard Top-count for 1 min/well.
δ GTP Emax (%) is the maximal effect elicited by a compound relative to the effect elicited by met-enkephalin.

δ-opioid receptor, sequence (P41143 whole entry, looked up): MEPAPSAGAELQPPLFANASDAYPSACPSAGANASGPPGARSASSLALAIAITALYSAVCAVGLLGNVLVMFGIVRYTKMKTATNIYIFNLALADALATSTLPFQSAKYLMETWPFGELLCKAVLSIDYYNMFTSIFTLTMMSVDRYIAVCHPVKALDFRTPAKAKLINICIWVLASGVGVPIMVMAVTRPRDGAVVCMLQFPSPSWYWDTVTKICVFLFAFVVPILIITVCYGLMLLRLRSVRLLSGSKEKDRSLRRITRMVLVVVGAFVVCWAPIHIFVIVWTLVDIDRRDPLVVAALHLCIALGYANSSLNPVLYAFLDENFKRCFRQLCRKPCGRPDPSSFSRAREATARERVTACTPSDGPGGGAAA

For `NC(=O)[C@@H]1C[C@]23CCN(CC4CC4)[C@H](Cc4ccc(O)cc42)[C@]3(O)C1` [Compound 31, (2R,3aS,4R,9bS)-12-(cyclopropylmethyl)-3a,8-dihydroxy-1,2,3,3a,4,5-hexahydro-4,9b-(epiminoethano)cyclopenta-[a]naphthalene-2-carboxamide], the Ki [1] was > 20 µM, the Emax ([2]; relative to DAMGO) was 1% and the EC50 ([2]; μ GTP, bound given in μM) was > 20 µM. For the same compound, the Emax ([3]; relative to met-enkephalin) was 32 ± 3.49% and the EC50 ([3]; δ GTP) was 0.0755 ± 0.0136 µM.
